Assay: molar heat capacity at constant pressure
Conditions: Liquid, Flow calorimetry

CC(=O)[O-].CCn1cc[n+](C)c1 [1-ethyl-3-methylimidazolium acetate]
Conditions | molar heat capacity at constant pressure [J/K/mol]
303.15 K, 100 kPa | 325.25
303.17 K, 4020 kPa | 324.22
303.21 K, 8050 kPa | 322.31
303.25 K, 12080 kPa | 321.03
303.27 K, 16030 kPa | 319.45
313.25 K, 100 kPa | 329.51
313.37 K, 4110 kPa | 327.89
313.42 K, 8060 kPa | 327.03
313.45 K, 12060 kPa | 326.25
313.49 K, 16090 kPa | 325.87
323.16 K, 100 kPa | 332.22
323.22 K, 4040 kPa | 330.61
323.28 K, 8020 kPa | 329.03
323.31 K, 12070 kPa | 327.19
323.34 K, 16130 kPa | 326.51
333.42 K, 100 kPa | 337.87
333.48 K, 4080 kPa | 336.14
333.52 K, 8030 kPa | 334.67
333.59 K, 12010 kPa | 333.16
333.61 K, 16090 kPa | 331.41
343.76 K, 100 kPa | 341.44
343.82 K, 4020 kPa | 340.21
343.85 K, 8030 kPa | 338.53
343.92 K, 12050 kPa | 337.42
343.98 K, 16050 kPa | 336.01
354.29 K, 100 kPa | 345.18
354.33 K, 4060 kPa | 343.89
354.38 K, 8020 kPa | 342.02
354.46 K, 12080 kPa | 340.87
354.52 K, 16090 kPa | 339.03
363.65 K, 100 kPa | 348.36
363.67 K, 4050 kPa | 346.97
363.72 K, 8060 kPa | 345.19
363.78 K, 12070 kPa | 344.06
363.82 K, 16030 kPa | 342.91
374.02 K, 100 kPa | 353.57
374.09 K, 4070 kPa | 352.06
374.11 K, 8010 kPa | 350.13
374.15 K, 12150 kPa | 348.47
374.18 K, 16110 kPa | 347.01
383.41 K, 100 kPa | 357.23
383.46 K, 4080 kPa | 355.56
383.51 K, 8040 kPa | 354.44
383.53 K, 12090 kPa | 353.71
383.55 K, 16050 kPa | 352.62
393.22 K, 100 kPa | 362.22
393.26 K, 4030 kPa | 361.14
393.31 K, 8070 kPa | 359.92
393.33 K, 12140 kPa | 358.14
393.35 K, 16090 kPa | 356.53
